{
  "source": "the NIST ThermoML archive (doi:10.1016/j.tca.2011.02.043)",
  "key": {"[1]": {"assay": "Molar enthalpy of transition or fusion", "details": "DSC"}, "[2]": {"assay": "molar heat capacity at constant pressure", "details": "101.33 kPa, Small sample (50 mg) DSC"}, "[3]": {"details": "DTA"}},
  "note": "± gives the expanded uncertainty stated by the source.",
  "data": [
    {"smiles": "[BH4-].[Li+]", "note": "[lithium tetrahydroborate]", "values": [
      {"measurement": "Molar enthalpy of transition or fusion", "setting": "[1]; Crystal 1", "value": "1.96 ± 0.153", "unit": "kcal/mol"},
      {"measurement": "Molar enthalpy of transition or fusion", "setting": "[1]; Crystal 2", "value": "1.21 ± 0.0574", "unit": "kcal/mol"},
      {"measurement": "molar heat capacity at constant pressure", "setting": "[2]; 298 K, Crystal 2", "value": "81.51 ± 4.2", "unit": "J/K/mol"},
      {"measurement": "molar heat capacity at constant pressure", "setting": "[2]; 310 K, Crystal 2", "value": "84.51 ± 4.4", "unit": "J/K/mol"},
      {"measurement": "molar heat capacity at constant pressure", "setting": "[2]; 320 K, Crystal 2", "value": "87.33 ± 4.5", "unit": "J/K/mol"},
      {"measurement": "molar heat capacity at constant pressure", "setting": "[2]; 330 K, Crystal 2", "value": "89.53 ± 4.7", "unit": "J/K/mol"},
      {"measurement": "molar heat capacity at constant pressure", "setting": "[2]; 340 K, Crystal 2", "value": "91.21 ± 4.7", "unit": "J/K/mol"},
      {"measurement": "molar heat capacity at constant pressure", "setting": "[2]; 350 K, Crystal 2", "value": "92.47 ± 4.8", "unit": "J/K/mol"},
      {"measurement": "molar heat capacity at constant pressure", "setting": "[2]; 360 K, Crystal 2", "value": "95.46 ± 5", "unit": "J/K/mol"},
      {"measurement": "molar heat capacity at constant pressure", "setting": "[2]; 370 K, Crystal 2", "value": "101.2 ± 5.3", "unit": "J/K/mol"},
      {"measurement": "molar heat capacity at constant pressure", "setting": "[2]; 380 K, Crystal 2", "value": "106.02 ± 5.5", "unit": "J/K/mol"},
      {"measurement": "molar heat capacity at constant pressure", "setting": "[2]; 410 K, Crystal 1", "value": "91.06 ± 4.7", "unit": "J/K/mol"},
      {"measurement": "molar heat capacity at constant pressure", "setting": "[2]; 420 K, Crystal 1", "value": "91.83 ± 4.8", "unit": "J/K/mol"},
      {"measurement": "molar heat capacity at constant pressure", "setting": "[2]; 430 K, Crystal 1", "value": "93.09 ± 4.8", "unit": "J/K/mol"},
      {"measurement": "molar heat capacity at constant pressure", "setting": "[2]; 440 K, Crystal 1", "value": "94.12 ± 4.9", "unit": "J/K/mol"},
      {"measurement": "molar heat capacity at constant pressure", "setting": "[2]; 450 K, Crystal 1", "value": "95.43 ± 5", "unit": "J/K/mol"},
      {"measurement": "molar heat capacity at constant pressure", "setting": "[2]; 460 K, Crystal 1", "value": "96.7 ± 5", "unit": "J/K/mol"},
      {"measurement": "molar heat capacity at constant pressure", "setting": "[2]; 470 K, Crystal 1", "value": "97.95 ± 5.1", "unit": "J/K/mol"},
      {"measurement": "molar heat capacity at constant pressure", "setting": "[2]; 480 K, Crystal 1", "value": "99.14 ± 5.2", "unit": "J/K/mol"},
      {"measurement": "molar heat capacity at constant pressure", "setting": "[2]; 490 K, Crystal 1", "value": "100.69 ± 5.2", "unit": "J/K/mol"},
      {"measurement": "molar heat capacity at constant pressure", "setting": "[2]; 500 K, Crystal 1", "value": "101.9 ± 5.3", "unit": "J/K/mol"},
      {"measurement": "molar heat capacity at constant pressure", "setting": "[2]; 510 K, Crystal 1", "value": "103.3 ± 5.4", "unit": "J/K/mol"},
      {"measurement": "molar heat capacity at constant pressure", "setting": "[2]; 520 K, Crystal 1", "value": "104.78 ± 5.4", "unit": "J/K/mol"},
      {"measurement": "Triple point temperature", "setting": "[3]; Crystal 1", "value": "553 ± 1", "unit": "K"},
      {"measurement": "Triple point temperature", "setting": "[3]; Crystal 2", "value": "386.6 ± 0.5", "unit": "K"}
    ]}
  ]
}
